Assays:
[1] = system: Jurkat, LAN-1, L1210, T-47D, ZR-75-1 and MDA-MB-231 cells; assay: Effect of BNSD-X on cell proliferation in various mammalian cell lines; format: cell-based; conditions: 1 mM aminoguanidine; 4 to 11 d
Description: FIGS. 3A and 3B are graphs showing the effect compounds used in a method according preferred embodiment of the present invention, on cell proliferation. In particular, they relate to the effect of selected BSD and BNSD derivatives on T-47D cell proliferation. Cells were incubated for 9 d with the indicated concentrations of BSD-2 (∘), BNSD-4 (●), BSD-4 (□), BNSD-6 (▪), BSD-10 (Δ), BSD-4-ene (▴) and BSD-4-yne (▾) in medium containing 1 mM aminoguanidine, and total DNA content per culture was then determined. B, Effect of BNSD-X (N,N,N′,N′-tetrakis-(3-aminopropyl)-p-diaminoxylene) on cell proliferation in various mammalian cell lines. Jurkat (∘), LAN-1 (●), L1210 (□), T-47D (▪), ZR-75-1 (Δ) and MDA-MB-231 (▴) cells were grown to near confluency or saturation (for 4 to 11 d according to the cell line considered) with the indicated concentrations of BNSD-X in the presence of 1 mM aminoguanidine, and total DNA content per culture was then determined. Data are given as the mean±SD for triplicate cultures from one out of at least two identical experiments;
The effect of transport inhibitors on cell proliferation was evaluated by determination of cell number (L1210, Jurkat) using electronic sizing with a Model ZM Coulter counter (Coulter Electronics, Hialeah, Fla.), or DNA content per culture (for all other cell lines) with the 3,5-diaminobenzoic acid assay. […]

[2] = system: mice; assay: Acute and subacute oral toxicity of BNSD-X by gavage; format: in vivo
Description: To assess the relative toxicity of BNSD-X, the drug was administered as a 1% (w/v) solution in the drinking water to CD-1 mice with ad libitum access for 14 d. Mice were weighed every other day during the experiment. At the end of the experiment, mice were sacrificed, and organs (kidneys, liver, and spleen) were immediately weighed. Organs were then saved in 10% formalin for morphological examination by an in-house pathologist at the CHUL Research Center (Quebec City, Canada). Acute and subacute oral toxicity of BNSD-X was also separately determined by administering the drug by gavage (0-5 g/kg body weight).
Orally administered polyamines (at ≧0.6 g/kg/day) can have deleterious neurological effects and induce lesions on internal organs (Til et al. (1997) Food Chem Toxicol. 35:337-348.). In order to assess the acute and subacute toxicity of BNSD-X as an orally delivered hexaamine, the effects of gavage with solid BNSD-X pellets was first examined in mice.

[3] = system: MDA-MB-231 human breast cancer xenograft; assay: MDA-MB-231 human breast cancer xenograft in nude mice; format: in vivo, immunodeficient CD-1 mice
Description: (§1) In particular, the mice have been treated with the following compounds: BNSD-X (1% w/v) (●), 0.3 (w/v) DFMO (□), 0.3% DFMO+BNSD-X (▪), 1% (w/v) DFMO (Δ), or 1% DFMO+BNSD-X (▴). Drugs were dissolved in drinking water which was given ad libitum to the animals. Control mice (∘) received distilled water only;
as §1, with “only; and” for “only;”
In particular, these compounds are BNSD-X (1% w/v), 0.3 (w/v) DFMO, 0.3% DFMO+BNSD-X, 1% (w/v) DFMO, or 1% DFMO+BNSD-X Drugs were dissolved in drinking water which was given ad libitum to the animals. Control mice received distilled water only.
For human xenograft experiments, athymic CD-1 mice were inoculated with 5×10^6 MDA-MB-231 human breast cancer cells (grown in tissue culture incubators to mid-exponential phase) in both sides of the inguinal mammary fat pad. After ˜2 weeks, when the tumor had reached a diameter ˜4 mm (as measured with a caliper), control mice were paired to treated ones in accordance with tumor volume (time zero). Animals were allowed free access to water containing 0, 0.3 or 1% DFMO (w/v), plus or minus 1% (w/v) BNSD-X (7 mice/experimental group). Tumor volume (V) was measured twice weekly with a caliper in 2 dimensions using the approximation V=(L×w^2)/2, where L is the length and w is the width of the xenograft (Bandyopadhyay et al., (2002) Cancer Res. 62:4690-4695). Animals were sacrificed after 39 d (i.e. when tumor size in control mice had reached about 500 mm^3). Mammary tumors were be excised and weighed.
The efficacy of BNSD-X as a chemotherapeutic agent was assessed in the MDA-MB-231 model of human breast cancer xenograft in the nude mouse, a model which is known to be sensitive to polyamine depletion by DFMO (Weeks et al., (2000) Exp Cell Res. 261:293-302). For that purpose, MDA-MB-231 cells were injected in the left and right mammary fat pads of immunodeficient CD-1 mice. Mice were then allowed to drink either BNSD-X at the optimal concentration (1%, w/v), as well as DFMO at either 0.3% or 1% (w/v) plus or minus 1% BNSD-X for 39 days before sacrificing the animals and measuring total final tumor mass (FIG. 12-14). The BNSD-X solution alone or with 0.3% DFMO led to a slight (˜7%) reduction of body weight, which was attenuated by the addition of 1% DFMO (FIG. 13) However, this effect of body weight could largely be accounted on the decreased tumor burden in the BNSD-X treated animals (FIG. 14). […]

SMILES: NCCCN(CCCN)Cc1ccc(CN(CCCN)CCCN)cc1 [28a, N,N,N′,N′-tetrakis-(3-aminopropyl)-p-diaminoxylene]
- effect on proliferation of a panel of mammalian cell lines [1]: remarkably inert
- adverse effect on animal behavior, body weight, body features and gross anatomy of kidneys, liver or spleen ([2]; gavage, up to 5.0 g/kg body weight): No external sign of sign of adverse effect
- LD50 ([2]; oral gavage with solid BNSD-X pellets): > 5 g/body weight
- reduction of body weight ([3]; 1% (w/v) BNSD-X alone in drinking water): ~7%
- decrease of total tumor mass ([3]; 1% (w/v) BNSD-X as a single agent, 39-d treatment): 65±10%

— patent US7425579B2, “Methods for inhibiting activity of polyamine transporters” (Universite Laval, priority 1998, dated 2008)
